According to patent publication US5744444A, “HPTH-fragment-(1-37), the preparation thereof, medicaments containing same and the use thereof” (HaemoPep Pharma GmbH, priority 1989, dated 1998):

Assays:
[1] = tested on: hPTH-(44-68)-RIA; settings: synthetic hPTH peptides; data provided by the producer (Immundiagnostik); cited from earlier work
[2] = tested on: hPTH-(53-84)-RIA; settings: synthetic hPTH peptides; data provided by the producer (Immundiagnostik); cited from earlier work
[3] = secondary structure by UV circular dichroism; assay type: physicochemical; settings: 50 μg/ml, 10 mM Tris-HCl buffer pH 7.5, room temperature, 190-240 nm; calculated by the method of Reed and Kinzel
Experimental: The circular dichroism was measured by means of a Jasco J-500 Automatic Recording Spectropolarimeter coupled with a Jasco DP-500 Data Processor. For the determination of the secondary structure, the measurement was carried out in the spectral range of from 190 nm to 240 nm at room temperature in a selected quartz cuvette at a light path of 1 mm. The parathormone concentrations employed were 50 μg/ml of hPTH-(1-33), 50 μg/ml of hPTH-(1-37) and 50 μg/ml of hPTH-(1-38). 10 mM Tris-HCl buffer pH 7.5 was used for dissolution (other conditions of the measurement: Sensitivity 2 milli-degrees/cm; time constant 2 seconds; recorder speed: 4 nm/min; wave length expansion: 5 nm/cm). The curves in FIG. 13 for hPTH-(1-33) hPTH-(1-37) and hPTH-(1-38) are average values for the signals from 4 subsequent measurements minus the base line values.
The evaluation for determining the secondary structure was performed in accordance with the method described by Reed and Kinzel (Biochemistry 23, 1357-1362, 1984).

Molecule | cross-reaction in the hPTH-(44-68)-RIA [1] | cross-reaction in the hPTH-(53-84)-RIA [2] | α-helix proportion of the secondary structure [3]
hPTH-(1-34): known synthetic amino-terminal partial sequence of human PTH (SVSEIQLMHNLGKHLNSMERVEWLRKKLQDVHNF; Parathyroid hormone; UniProt P01270 32-65, looked up, fragment) | do not show any cross-reaction | do not show any cross-reaction | –
hPTH-(1-33): synthetic N-terminal human PTH fragment, comparison peptide (SVSEIQLMHNLGKHLNSMERVEWLRKKLQDVHN; Parathyroid hormone; UniProt P01270 32-64, looked up, fragment) | – | – | similarly low as in hPTH-(1-38)
hPTH-(28-48): synthetic hPTH peptide tested for cross-reaction in the RIAs (LQDVHNFVALGAPLAPRDAGS; Parathyroid hormone; UniProt P01270 59-79, looked up, fragment) | do not show any cross-reaction | do not show any cross-reaction | –
hPTH-(44-68): synthetic hPTH peptide, standard of the medium-regional RIA (RDAGSQRPRKKEDNVLVESHEKSLG; Parathyroid hormone; UniProt P01270 75-99, looked up, fragment) | – | do not show any cross-reaction | –
hPTH-(1-38): known synthetic amino-terminal partial sequence of human PTH, comparison peptide (SVSEIQLMHNLGKHLNSMERVEWLRKKLQDVHNFVALG; Parathyroid hormone; UniProt P01270 32-69, looked up, fragment) | – | – | about 27%
hPTH-(53-84): synthetic hPTH peptide, standard of the C-terminal RIA (KKEDNVLVESHEKSLGEADKADVNVLTKAKSQ; Parathyroid hormone; UniProt P01270 84-115, looked up, fragment) | 100% | – | –
hPTH-(64-84): synthetic hPTH peptide tested for cross-reaction in the RIAs (EKSLGEADKADVNVLTKAKSQ; Parathyroid hormone; UniProt P01270 95-115, looked up, fragment) | do not show any cross-reaction | 100% | –
hPTH-(1-84): the secreted PTH molecule consisting of 84 amino acids (peptide, UniProt P01270 32-115, looked up, Parathyroid hormone, the secreted PTH molecule consisting of 84 amino acids) Parathyroid hormone: SVSEIQLMHNLGKHLNSMERVEWLRKKLQDVHNFVALGAPLAPRDAGSQRPRKKEDNVLVESHEKSLGEADKADVNVLTKAKSQ | 100% | 100% | –
